pIC50: −log10 of the molar value.

T1 sequence (P08581 25-1390): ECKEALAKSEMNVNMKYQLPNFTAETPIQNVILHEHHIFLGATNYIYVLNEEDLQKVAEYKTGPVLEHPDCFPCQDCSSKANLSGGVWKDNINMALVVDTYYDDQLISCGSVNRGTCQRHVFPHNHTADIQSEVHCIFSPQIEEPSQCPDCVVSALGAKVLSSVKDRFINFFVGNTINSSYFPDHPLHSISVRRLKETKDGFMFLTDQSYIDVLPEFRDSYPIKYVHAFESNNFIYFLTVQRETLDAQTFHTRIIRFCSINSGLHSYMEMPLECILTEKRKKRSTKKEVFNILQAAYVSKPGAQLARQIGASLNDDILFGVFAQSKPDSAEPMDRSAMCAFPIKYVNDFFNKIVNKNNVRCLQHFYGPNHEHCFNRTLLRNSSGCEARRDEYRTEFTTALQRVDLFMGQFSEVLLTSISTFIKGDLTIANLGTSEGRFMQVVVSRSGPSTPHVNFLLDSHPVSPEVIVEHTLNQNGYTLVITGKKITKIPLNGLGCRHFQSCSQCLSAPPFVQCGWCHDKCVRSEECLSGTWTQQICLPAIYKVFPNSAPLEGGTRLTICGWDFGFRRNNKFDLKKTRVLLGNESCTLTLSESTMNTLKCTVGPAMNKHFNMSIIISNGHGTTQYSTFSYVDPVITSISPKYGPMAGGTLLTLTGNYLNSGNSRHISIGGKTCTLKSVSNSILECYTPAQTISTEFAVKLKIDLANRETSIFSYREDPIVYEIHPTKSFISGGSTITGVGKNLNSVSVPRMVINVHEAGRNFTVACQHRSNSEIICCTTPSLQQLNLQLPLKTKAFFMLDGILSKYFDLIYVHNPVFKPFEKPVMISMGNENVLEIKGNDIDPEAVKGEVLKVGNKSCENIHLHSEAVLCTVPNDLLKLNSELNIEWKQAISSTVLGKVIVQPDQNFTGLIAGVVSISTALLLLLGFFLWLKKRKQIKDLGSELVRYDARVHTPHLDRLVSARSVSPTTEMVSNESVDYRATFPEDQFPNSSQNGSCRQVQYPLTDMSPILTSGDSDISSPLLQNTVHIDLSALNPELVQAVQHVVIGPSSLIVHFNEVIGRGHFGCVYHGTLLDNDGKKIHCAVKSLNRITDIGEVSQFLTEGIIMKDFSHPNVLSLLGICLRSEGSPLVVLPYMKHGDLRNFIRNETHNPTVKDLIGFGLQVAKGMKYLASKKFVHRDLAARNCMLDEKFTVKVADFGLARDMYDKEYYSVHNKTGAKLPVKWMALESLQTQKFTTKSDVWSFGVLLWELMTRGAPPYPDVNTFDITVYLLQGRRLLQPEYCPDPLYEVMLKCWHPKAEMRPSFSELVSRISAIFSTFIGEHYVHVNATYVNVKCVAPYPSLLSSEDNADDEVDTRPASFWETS

This assay has as its target T1, HGFR (Homo sapiens, UniProt P08581).
T1 construct: endogenous in cells; host or cells: MKN-45 human gastric cancer cells
The experiment in a line: Inhibitory activity against the HGFR autophosphorylation using ELISA (MKN-45 cells). The settings on record: 1 hr with test substance. Type of assay: cell-based. The essentials:
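MKN-45 gastric cancer cells, plated overnight in 1% FBS RPMI1640, treated with compound 1 h at 37° C and lysed. Lysate captured on anti-phosphotyrosine (PY20) plates, probed with anti-HGFR then HRP anti-rabbit IgG; TMB absorbance at 450 nm. Activity expressed as % of untreated extract (100%) versus lysis buffer blank (0%).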
The term pIC50 denotes −log10 of the IC50, conventionally taken in molar units. Regarding `O=C(Nc1cc(Oc2cc(F)c(NC(=O)C3(C(=O)Nc4ccc(F)cc4)CC3)cc2F)ccn1)N1CC(CN2CCC2)C1` [Example 95, N-{4-[(2-{[3-(Azetidin-1-ylmethyl)azetidin-1-ylcarbonyl]amino}pyridin-4-yl)oxy]-2,5-difluorophenyl}-N′-(4-fluorophenyl)cyclopropane-1,1-dicarboxamide], the pIC50 was 7.89.

For `CN(C)CC1CCN(C(=O)Nc2cc(Oc3ccc(NC(=O)C4(C(=O)Nc5ccc(F)cc5)CC4)cc3F)ccn2)CC1` [Example 5, N-[4-({2-[({4-[(Dimethylamino)methyl]piperidin-1-yl}carbonyl)amino]pyridin-4-yl}oxy)-3-fluorophenyl]-N′-(4-fluorophenyl)cyclopropane-1,1-dicarboxamide], the pIC50 was 7.66.

`O=C(Nc1cc(Oc2ccc(NC(=O)C3(C(=O)Nc4ccc(F)cc4)CC3)cc2F)ccn1)N1CC[C@H](O)C1` [Example 88, N-(3-Fluoro-4-{[2-({[(3S)-3-hydroxypyrrolidin-1-yl]carbonyl}amino)pyridin-4-yl]oxy}phenyl)-N′-(4-fluorophenyl)cyclopropane-1,1-dicarboxamide]: the pIC50 was 7.70.

In turn, `O=C(Nc1cc(Oc2ccc(NC(=O)C3(C(=O)Nc4ccc(F)cc4)CC3)c(F)c2)ccn1)N1CC[C@@H](O)C1` [Example 87, N-(2-Fluoro-4-{[2-({[(3R)-3-hydroxypyrrolidin-1-yl]carbonyl}amino)pyridin-4-yl]oxy}phenyl)-N′-(4-fluorophenyl)cyclopropane-1,1-dicarboxamide] gave a pIC50 of 7.92.

The molecule `O=C(Nc1cc(Oc2ccc(NC(=O)C3(C(=O)Nc4ccc(F)cc4)CC3)c(F)c2)ccn1)N1CC[C@H](O)C1` [Example 89, N-(2-Fluoro-4-{[2-({[(3S)-3-hydroxypyrrolidin-1-yl]carbonyl}amino)pyridin-4-yl]oxy}phenyl)-N′-(4-fluorophenyl)cyclopropane-1,1-dicarboxamide] gave a pIC50 of 7.77.

`O=C(Nc1cc(Oc2cc(F)c(NC(=O)C3(C(=O)Nc4ccc(F)cc4)CC3)cc2F)ccn1)N1CCC1` [Example 90, N-[4-({2-[(Azetidin-1-ylcarbonyl)amino]pyridin-4-yl}oxy)-2,5-difluorophenyl]-N′-(4-fluorophenyl)cyclopropane-1,1-dicarboxamide] showed a pIC50 of 7.96.

Take `CN(C)CC1CN(C(=O)Nc2cc(Oc3cc(F)c(NC(=O)C4(C(=O)Nc5ccc(F)cc5)CC4)cc3F)ccn2)C1` [Example 93, N-[2,5-Difluoro-4-({2-[({3-[(dimethylamino)methyl]azetidin-1-yl]carbonyl)amino]pyridin-4-yl}oxy)phenyl]-N′-(4-fluorophenyl)cyclopropane-1,1-dicarboxamide]: the pIC50 was 8.15.

`O=C(Nc1cc(Oc2ccc(NC(=O)C3(C(=O)Nc4ccc(F)cc4)CC3)cc2F)ccn1)N1CC(CO)C1` [Example 81, N-(3-Fluoro-4-{[2-({[3-(hydroxymethyl)azetidin-1-yl]carbonyl}amino)pyridin-4-yl]oxy}phenyl)-N′-(4-fluorophenyl)cyclopropane-1,1-dicarboxamide]: the pIC50 is 8.15.

Consider `O=C(Nc1cc(Oc2ccc(NC(=O)C3(C(=O)Nc4ccc(F)cc4)CC3)cc2F)ccn1)N1CCC(O)CC1` [Example 84, N-[3-Fluoro-4-[(2-{[(4-hydroxypiperidin-1-yl)carbonyl]amino}pyridin-4-yl)oxy]phenyl}-N′-(4-fluorophenyl)cyclopropane-1,1-dicarboxamide], for which the pIC50 was 7.77.

As for `O=C(Nc1cc(Oc2cc(F)c(NC(=O)C3(C(=O)Nc4ccc(F)cc4)CC3)cc2F)ccn1)N1CC(CO)C1` [Example 96, N-(2,5-Difluoro-4-{[2-({[3-(hydroxymethyl)azetidin-1-yl]carbonyl}amino)pyridin-4-yl]oxy}phenyl)-N′-(4-fluorophenyl)cyclopropane-1,1-dicarboxamide], the pIC50 is 8.38.

In turn, `O=C(Nc1cc(Oc2ccc(NC(=O)C3(C(=O)Nc4ccc(F)cc4)CC3)c(F)c2)ccn1)N1CCC(O)CC1` [Example 82, N-[2-Fluoro-4-[(2-{[(4-hydroxypiperidin-1-yl)carbonyl]amino}pyridin-4-yl)oxy]phenyl}-N′-(4-fluorophenyl)cyclopropane-1,1-dicarboxamide] gave a pIC50 of 7.66.

As for `O=C(Nc1cc(Oc2ccc(NC(=O)C3(C(=O)Nc4ccc(F)cc4)CC3)cc2F)ccn1)N1CC[C@@H](O)C1` [Example 86, N-(3-Fluoro-4-{[2-({[(3R)-3-hydroxypyrrolidin-1-yl]carbonyl}amino)pyridin-4-yl]oxy}phenyl)-N′-(4-fluorophenyl)cyclopropane-1,1-dicarboxamide], the pIC50 was 7.96.

The molecule `O=C(Nc1cc(Oc2ccc(NC(=O)C3(C(=O)Nc4ccc(F)cc4)CC3)cc2F)ccn1)N1CCC(CO)CC1` [Example 85, N-(3-Fluoro-4-{[2-({[-4-(hydroxymethyl)piperidin-1-yl]carbonyl}amino)pyridin-4-yl]oxy}phenyl)-N′-(4-fluorophenyl)cyclopropane-1,1-dicarboxamide] gave a pIC50 of 7.85.

The molecule `CN(C)CC1CN(C(=O)Nc2cc(Oc3cc(F)c(NC(=O)C4(C(=O)Nc5ccc(F)cc5)CC4)cc3F)ncn2)C1` [Example 98, N-[4-({4-[({3-[(Dimethylamino)methyl]azetidin-1-yl}carbonyl)amino]pyrimidin-6-yl}oxy)-2,5-difluorophenyl]-N′-(4-fluorophenyl)cyclopropane-1,1-dicarboxamide] had a pIC50 of 7.77.

`CN1CCN(C2CCN(C(=O)Nc3cc(Oc4cc(F)c(NC(=O)C5(C(=O)Nc6ccc(F)cc6)CC5)cc4F)ccn3)CC2)CC1` [Example 92, N-(2,5-Difluoro-4-{[2-({[4-(4-methylpiperazin-1-yl)piperidin-1-yl]carbonyl}amino)pyridin-4-yl]oxy}phenyl)-N′-(4-fluorophenyl)cyclopropane-1,1-dicarboxamide] gave a pIC50 of 7.89.

Molecule `O=C(Nc1cc(Oc2ccc(NC(=O)C3(C(=O)Nc4ccc(F)cc4)CC3)c(F)c2)ccn1)N1CCC(CO)CC1` [Example 83, N-(2-Fluoro-4-{[2-({[4-(hydroxymethyl)piperidin-1-yl]carbonyl}amino)pyridin-4-yl]oxy}phenyl)-N′-(4-fluorophenyl)cyclopropane-1,1-dicarboxamide] gave a pIC50 of 7.74.

Molecule `O=C(Nc1cc(Oc2cc(F)c(NC(=O)C3(C(=O)Nc4ccc(F)cc4)CC3)cc2F)ncn1)N1CC(O)C1` [Example 97, N-{2,5-Difluoro-4-[(4-{[(3-hydroxyazetidin-1-yl)carbonyl]amino}pyrimidin-6-yl)oxy]phenyl}-N′-(4-fluorophenyl)cyclopropane-1,1-dicarboxamide] showed a pIC50 of 7.85.

The record behind these values is US7855290B2, “Pyridine derivatives and pyrimidine derivatives (3)” (Eisai R&D Management Co., Ltd., priority 2005, dated 2010).
